Results taken from ChEMBL document CHEMBL1135858, “Vitamin D(3): synthesis of seco-C-9,11-bisnor-17-methyl-1 alpha,25-dihydroxyvitamin D(3) analogues” (2002).

Legend:
[1] = tested on: HL-60; assay: Percent inhibition against HL-60 cell line (50% dose response), relative to 1-alpha,25 (OH)2D3 (100% activity) determined in vitro; assay type: functional, Homo sapiens; set-up: scale not given: the % may be the effect or the level left
[2] = tested on: Keratinocyte; assay: Percent inhibition against Keratinocytes cell line (50% dose response), relative to 1-alpha,25 (OH)2D3 (100% activity) determined in vitro; assay type: functional, Homo sapiens; set-up: scale not given: the % may be the effect or the level left
[3] = tested on: Mus musculus; assay: Calcemic effect in vivo in vitamin D-replete normal NMRI mice by daily intraperitoneal injections of compound and 1-alpha,25 (OH)2D3 for 7 consecutive days; assay type: functional
[4] = tested on: MCF7; assay: Percent inhibition against MCF-7 cell line (50% dose response), relative to 1-alpha,25 (OH)2D3 (100% activity) determined in vitro; assay type: functional, Homo sapiens; set-up: scale not given: the % may be the effect or the level left
[5] = molecular target: T1, Vitamin D3 receptor (Sus scrofa) (UniProt A3RGC1); assay: (§1) Displacement of 50% binding of [3H]alpha,25 (OH)2D3 from pig intestinal mucosa Vitamin D3 receptor; assay type: tissue-based
T1 sequence (whole entry): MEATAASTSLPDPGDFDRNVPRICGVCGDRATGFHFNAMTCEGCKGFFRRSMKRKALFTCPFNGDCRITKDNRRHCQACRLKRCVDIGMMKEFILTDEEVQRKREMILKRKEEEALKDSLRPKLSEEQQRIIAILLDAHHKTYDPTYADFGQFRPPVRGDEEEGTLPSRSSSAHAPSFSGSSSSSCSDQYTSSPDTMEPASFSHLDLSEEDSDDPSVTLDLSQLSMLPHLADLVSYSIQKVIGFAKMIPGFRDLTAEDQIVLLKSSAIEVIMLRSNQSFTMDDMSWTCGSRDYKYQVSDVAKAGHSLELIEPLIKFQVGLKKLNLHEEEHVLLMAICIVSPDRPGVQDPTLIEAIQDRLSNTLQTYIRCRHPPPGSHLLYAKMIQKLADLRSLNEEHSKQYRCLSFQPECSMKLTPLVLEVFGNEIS

[6] = molecular target: T1, Vitamin D3 receptor (Sus scrofa); assay: as §1

Row | Relative affinity [5] | Relative affinity [6] | SMILES | Activity [1] [%] | Activity [2] [%] | Activity [3] [%] | Activity [4] [%]
1 | 85 |  | C=C1C(=CC=C[C@@H]2CC[C@](C)([C@@H](C)CC(C)CCCC(O)(CC)CC)C2(C)C)C[C@@H](O)C[C@@H]1O (stereo not given in full) | 1250 | 7000 | 100 | 15000
2 | 60 |  | C=C1C(=CC=C[C@@H]2CC[C@](C)([C@@H](C)CC(C)CCCC(O)(C(F)(F)F)C(F)(F)F)C2(C)C)C[C@@H](O)C[C@@H]1O (stereo not given in full) | 400 | 20000 | >100 | 30000
3 |  | 7 | CC(CC#CC(C)(C)O)C[C@@H](C)[C@@]1(C)CC[C@@H](/C=C/C=C2C[C@@H](O)C[C@H](O)C2)C1(C)C (stereo not given in full) | 85 | 200 | 0.12 | 70
4 |  | 3 | CC(CCCC(C)(C)O)C[C@@H](C)[C@@]1(C)CC[C@@H](/C=C/C=C2C[C@@H](O)C[C@H](O)C2)C1(C)C (stereo not given in full) | 10 | 80 | 0.12 | 8
5 | 100 |  | C=C1/C(=C\C=C2/CCC[C@]3(C)[C@@H]([C@H](C)CCCC(C)(C)O)CC[C@@H]23)C[C@@H](O)C[C@@H]1O [CALCITRIOL] | 100 | 100 | 100 | 100
6 | 60 |  | CCC(O)(CC)CCCC(C)C[C@H](C)[C@@]1(C)CC[C@@H](/C=C/C=C2C[C@@H](O)C[C@H](O)C2)C1(C)C (stereo not given in full) | 500 | 7000 | 20 | 7500
7 |  | 6 | C=C1C(=CC=C[C@@H]2CC[C@](C)([C@H](C)CC(C)CCCC(C)(C)O)C2(C)C)C[C@@H](O)C[C@@H]1O (stereo not given in full) | 50 | 100 | 0.25 | 60
8 | 75 |  | C=C1C(=CC=C[C@@H]2CC[C@](C)([C@@H](C)CC(C)CC#CC(O)(C(F)(F)F)C(F)(F)F)C2(C)C)C[C@@H](O)C[C@@H]1O (stereo not given in full) | 1250 | 15000 | 25 | 8000
9 |  | 30 | C=C1C(=CC=C[C@@H]2CC[C@](C)([C@H](C)CC(C)CCCC(O)(C(F)(F)F)C(F)(F)F)C2(C)C)C[C@@H](O)C[C@@H]1O (stereo not given in full) | 150 | 2400 | 10 | 2500
10 |  | 50 | CCC(O)(C#CCC(C)C[C@@H](C)[C@@]1(C)CC[C@@H](/C=C/C=C2C[C@@H](O)C[C@H](O)C2)C1(C)C)CC (stereo not given in full) | 50 | 85 | 0.25 | 85
11 |  | 10 | CCC(O)(CC)CCCC(C)C[C@@H](C)[C@@]1(C)CC[C@@H](/C=C/C=C2C[C@@H](O)C[C@H](O)C2)C1(C)C (stereo not given in full) | 80 | 300 | 0.5 | 150
12 | 40 |  | CC(CCCC(C)(C)O)C[C@H](C)[C@@]1(C)CC[C@@H](/C=C/C=C2C[C@@H](O)C[C@H](O)C2)C1(C)C (stereo not given in full) | 600 | 600 | 0.5 | 400
13 |  | 50 | C=C1C(=CC=C[C@@H]2CC[C@](C)([C@H](C)CC(C)CCCC(O)(CC)CC)C2(C)C)C[C@@H](O)C[C@@H]1O (stereo not given in full) | 150 | 400 | 2 | 300
14 |  | 60 | C=C1C(=CC=C[C@@H]2CC[C@](C)([C@H](C)CC(C)CC#CC(O)(C(F)(F)F)C(F)(F)F)C2(C)C)C[C@@H](O)C[C@@H]1O (stereo not given in full) | 250 | 3600 | 6 | 4500
15 | 80 |  | C=C1C(=CC=C[C@@H]2CC[C@](C)([C@@H](C)CC(C)CC#CC(O)(CC)CC)C2(C)C)C[C@@H](O)C[C@@H]1O (stereo not given in full) | 600 | 800 | 25 | 750
16 |  | 50 | CC(CC#CC(O)(C(F)(F)F)C(F)(F)F)C[C@@H](C)[C@@]1(C)CC[C@@H](/C=C/C=C2C[C@@H](O)C[C@H](O)C2)C1(C)C (stereo not given in full) | 300 | 3000 | 3 | 1500
17 | 40 |  | CC(CCCC(O)(C(F)(F)F)C(F)(F)F)C[C@H](C)[C@@]1(C)CC[C@@H](/C=C/C=C2C[C@@H](O)C[C@H](O)C2)C1(C)C (stereo not given in full) | 400 | 16000 | 100 | 20000
18 | 60 |  | CCC(O)(C#CCC(C)C[C@H](C)[C@@]1(C)CC[C@@H](/C=C/C=C2C[C@@H](O)C[C@H](O)C2)C1(C)C)CC (stereo not given in full) | 400 | 300 | 2 | 700
19 |  | 60 | C=C1C(=CC=C[C@@H]2CC[C@](C)([C@H](C)CC(C)CC#CC(C)(C)O)C2(C)C)C[C@@H](O)C[C@@H]1O (stereo not given in full) | 80 | 500 | 3 | 600
20 |  | 9 | CC(CCCC(O)(C(F)(F)F)C(F)(F)F)C[C@@H](C)[C@@]1(C)CC[C@@H](/C=C/C=C2C[C@@H](O)C[C@H](O)C2)C1(C)C (stereo not given in full) | 100 | 1500 | 50 | 600
21 | 50 |  | CC(CC#CC(O)(C(F)(F)F)C(F)(F)F)C[C@H](C)[C@@]1(C)CC[C@@H](/C=C/C=C2C[C@@H](O)C[C@H](O)C2)C1(C)C (stereo not given in full) | 400 | 15000 | 25 | 6000
22 | 75 |  | C=C1C(=CC=C[C@@H]2CC[C@](C)([C@@H](C)CC(C)CC#CC(C)(C)O)C2(C)C)C[C@@H](O)C[C@@H]1O (stereo not given in full) | 800 | 3250 | 3 | 1250
23 |  | 80 | C=C1C(=CC=C[C@@H]2CC[C@](C)([C@H](C)CC(C)CC#CC(O)(CC)CC)C2(C)C)C[C@@H](O)C[C@@H]1O (stereo not given in full) | 75 | 80 | 2 | 150
24 | 40 |  | CC(CC#CC(C)(C)O)C[C@H](C)[C@@]1(C)CC[C@@H](/C=C/C=C2C[C@@H](O)C[C@H](O)C2)C1(C)C (stereo not given in full) | 350 | 2000 | 4 | 1300
25 |  | 85 | C=C1C(=CC=C[C@@H]2CC[C@](C)([C@@H](C)CC(C)CCCC(C)(C)O)C2(C)C)C[C@@H](O)C[C@@H]1O (stereo not given in full) | 800 | 1000 | 8 | 2000
